Results: US5877202A, “Indole derivatives useful to treat estrogen-related neoplasms and disorders” (priority 1996, dated 1999)

Tests used:
[1] = test system: estrogen receptor mRNA; experiment: Reduction of estrogen receptor mRNA levels in treated MCF-7 human breast tumor cells; type: cell-based;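 for Estrogen Receptor mRNA band intensity: Phosphoimager intensity of radioactive mRNA bands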
Description: After treatment with 30 μM drug for 24 hr, total RNA is isolated according to the guanidinium isothiocyanate method using an RNA preparation kit from 5 Prime-3 Prime, Inc., following the manufacturer's instructions. The RNA is separated by formaldehyde gel electrophoresis and transferred to a nylon membrane.

[2] = biological target: T1, estrogen receptors (Homo sapiens, UniProt P03372); experiment: Quantification of estrogen receptors in nuclear and whole cell extracts (ER-EIA monoclonal kit), Table 1; type: cell-based, human (MCF-7 human breast cancer cells); settings: estrogen receptors in nuclear extracts
T1 construct: estrogen receptor extracted from MCF-7 human breast tumor cells; endogenous in cells; host or cells: MCF-7 human breast cancer cells (nuclear extract, cytosol or whole cell extract)
T1 sequence (P03372 1-595): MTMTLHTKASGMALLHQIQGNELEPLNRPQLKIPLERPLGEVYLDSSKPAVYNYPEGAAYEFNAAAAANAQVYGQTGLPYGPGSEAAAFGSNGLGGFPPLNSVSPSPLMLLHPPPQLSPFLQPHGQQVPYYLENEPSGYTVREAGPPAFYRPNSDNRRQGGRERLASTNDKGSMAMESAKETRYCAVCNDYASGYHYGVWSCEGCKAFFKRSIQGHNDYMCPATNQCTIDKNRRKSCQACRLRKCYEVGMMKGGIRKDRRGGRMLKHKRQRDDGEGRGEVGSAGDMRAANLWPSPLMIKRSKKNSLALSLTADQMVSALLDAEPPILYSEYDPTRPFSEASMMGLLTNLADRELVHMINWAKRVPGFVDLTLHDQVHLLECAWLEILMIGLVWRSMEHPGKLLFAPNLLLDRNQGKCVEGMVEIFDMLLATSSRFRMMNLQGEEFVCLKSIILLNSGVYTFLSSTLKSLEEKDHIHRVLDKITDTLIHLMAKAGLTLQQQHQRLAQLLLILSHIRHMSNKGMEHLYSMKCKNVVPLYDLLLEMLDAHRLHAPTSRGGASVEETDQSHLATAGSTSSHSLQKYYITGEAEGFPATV
Description: (§1) Monolayers of MCF-7 human breast cancer cells are rinsed once with HBSS and scraped off culture dishes into 15 ml conical tubes with 5 ml HBSS. The cells are sedimented by centrifugation at 250×g for five minutes, suspended in 1 ml HBSS and sedimented by centrifugation at 2000 rpm in a tabletop centrifuge for five minutes in a 1.5 ml microfuge tube. Two PCV of a solution of a lysis buffer (25 mM HEPES, pH 7.8, 50 mM KCl, 0.5% Nonidet P 40, 2 mM dithiothreitol, 0.2 mM phenylmethylsulfonyl fluoride, 0.05 mg/ml leupeptin, 0.05 mg/ml aprotinin, 0.0025 mg/ml pepstatin, 0.005 mg/ml antipain) are added and cells are kept on ice for 15 minutes. Lysed cells are centrifuged for 3 minutes at 10,000×g, supernatant decanted, and kept as the cytosol fraction. Pellets are suspended in two PCV of extraction buffer (25 mM HEPES, pH 7.8, 500 mM KCl, 10% glycerol, 2 mM dithiothreitol and the above protease inhibitors), mixed for 20 minutes by inversion at 4 degrees C. and centrifuged at 10,000×g for 20 minutes. The supernatant is decanted and saved as nuclear extract. Both the nuclear extract and the cytosol are dialyzed for two hours against dialysis buffer (25 mM HEPES, pH 7.8, 50 mM KCl, 10% glycerol, 2 mM dithiothreitol and the above protease inhibitors). Nuclear and cytosol fractions are stored frozen at -80 degrees C. until used for mobility shift assays or determination of estrogen receptor content.
Whole cell extracts of tumor cells are prepared by the method of Reese and Katzenellenbogen, Nuc. Acids Res., 19: 6595-6602 (1991), with some modifications. Cell monolayers are rinsed once with HBSS, then scraped into HBSS and sedimented by centrifugation (5 min., 250×g). After resuspending in 1 mL HBSS, the cells are again sedimented at 250×g for 5 min at 4° C. The cell pellet is resuspended in lysis/extract buffer containing 20 mM Tris, pH 7.5, 10% glycerol (v/v), 0.5M sodium chloride and 0.5% NP-40 (v/v) and incubated on ice for 25 minutes, then the supernatants are dialyzed against 25 mM HEPES, pH 7.8, 10% glycerol (v/v), 0.5 mM dithiothreitol and 50 mM potassium chloride for 2 hours at 4° C. Both the lysis/extraction and the dialysis buffers contain protease inhibitors which included 0.5 mM phenylmethylsulfonylfluoride, 0.05 mg/mL leupeptin, 0.05 mg/mL aprotinin, 0.00-25 mg/mL pepstatin, and 0.005 mg/mL antipain. Dialyzed whole cell extracts are stored in aliquots at -80° C. until used.
The protein concentration for nucleus and cytosol fractions are determined with a BIO-RAD kit, according to the manufacturer's instructions.
Estrogen receptor levels in nuclear and whole cell extracts of tumor cells were quanitated using the ER-EIA monoclonal kit manufactured by Abbott Laboratories (Diagnostic Division) according to the kit instructions.
receptors in nuclear extracts.
.dagger.WCE refers to IC50 value for estrogen receptors in whole cel
A slash dividing two numbers indicates the results of two separate

[3] = test system: MCF-7 tumors; experiment: Inhibition of growth of MCF-7 tumors implanted in nu/nu mice; type: in vivo, female nu/nu mice; settings: for tumor volume: n = 5, in mm³
[4] = biological target: T2, estrogen receptor binding to an estrogen response element (Homo sapiens, UniProt P03372); experiment: Inhibition of estrogen receptor binding to an estrogen response element in DNA mobility shift assays; type: biochemical, human (nuclear extract of MCF-7 human breast cancer cells)
T2 construct: estrogen receptor extracted from MCF-7 human breast tumor cells; endogenous in cells; host or cells: MCF-7 human breast cancer cells (nuclear extract, cytosol or whole cell extract)
T2 sequence (P03372 1-595): T1 sequence (P03372 1-595)
Description: as §1
Briefly, to each reaction tube was added 0.01 mg nuclear extract, 2 μg poly dIdC, 50 mM NaCl, 1 mM dithiothreitol and 10 mM Tris, pH 7.5 in a total volume of 0.01 ml and the mixture was kept at room temperature for 10 minutes. A ^32 P-labelled estrogen response element [ERE]

[5] = test system: MCF-7 human breast tumor cells; experiment: Inhibition of growth of MCF-7 human breast tumor cells; type: cell-based; settings: MCF7, MCF-7 cells, medium with 0.001 mg/ml insulin
[6] = read-out: integrated volume of shifted ERE oligo as percentage of control, given as % inhibition

CCCCN(C)C(=O)CCCCCCCNC(=O)Cc1c(C)n(C(=O)c2ccc(Cl)cc2)c2ccc(O)cc12 [MDL 101,906, 8-[[5-Hydroxy-1-(4-chlorobenzoyl)-2-methyl-1H-indol-3-yl]-acetylamino]-octanoic acid methyl-butyl-amide]
ER/GAPDH mean ([1]; 30 μM, 24 hr, mean of replicates 1 and 2): 0.53 | ER/GAPDH ([1]; 30 μM, 24 hr, replicate 1): 0.98 | Estrogen Receptor mRNA band intensity ([1]; 30 μM, 24 hr, replicate 1): 5,142 | ER/GAPDH ([1]; 30 μM, 24 hr, replicate 2): 0.38 | Estrogen Receptor mRNA band intensity ([1]; 30 μM, 24 hr, replicate 2): 1,916 | activity at 30 µM ([1]; Homo sapiens, MCF7, 24 h, read-out: ER/GAPDH % Control): 18% | IC50 [2]: 19 µM | IC50 ([2]; second of two separate experiments (after the slash)): 8.6 µM | tumor volume ([3]; 10 mg/kg i.p., day 14 after tumor implantation): 49 ± 18 | tumor volume ([3]; 10 mg/kg i.p., day 22 after tumor implantation): 111 ± 36 | tumor volume ([3]; 10 mg/kg i.p., day 29 after tumor implantation): 155 ± 43 | tumor volume ([3]; 10 mg/kg i.p., day 36 after tumor implantation): 255 ± 70 | tumor volume ([3]; 20 mg/kg i.p., day 14 after tumor implantation): 58 ± 9 | tumor volume ([3]; 20 mg/kg i.p., day 22 after tumor implantation): 140 ± 16 | tumor volume ([3]; 20 mg/kg i.p., day 29 after tumor implantation): 197 ± 30 | tumor volume ([3]; 20 mg/kg i.p., day 36 after tumor implantation): 282 ± 38 | tumor volume ([3]; 50 mg/kg i.p., day 14 after tumor implantation): 77 ± 14 | tumor volume ([3]; 50 mg/kg i.p., day 22 after tumor implantation): 143 ± 13 | tumor volume ([3]; 50 mg/kg i.p., day 29 after tumor implantation): 178 ± 53 | tumor volume ([3]; 50 mg/kg i.p., day 36 after tumor implantation): 291 ± 79 | tumor volume ([3]; 100 mg/kg i.p., day 14 after tumor implantation): 56 ± 10 | tumor volume ([3]; 100 mg/kg i.p., day 22 after tumor implantation): 81 ± 16 | tumor volume ([3]; 100 mg/kg i.p., day 29 after tumor implantation): 110 ± 24 | tumor volume ([3]; 100 mg/kg i.p., day 36 after tumor implantation): 170 ± 41 | tumor volume over time, dose dependence ([3]; 10 to 100 mg/kg i.p.): dose-dependent decrease in the tumor volume over time | decrease in tumor volume over control ([3]; highest dose (100 mg/kg), 36 days after tumor implantation): 55% | size of the tumors compared to control mice ([3]; intraperitoneal injections, suspension in 20% DMSO/water): reduced the size of the tumors compared to control mice | IC50 [4]: 8.5 µM | inhibition at 2 µM [4, 6]: 81% | inhibition at 5 µM [4, 6]: 76% | inhibition at 10 µM [4, 6]: 46% | inhibition at 20 µM [4, 6]: 38% | IC50 [5]: 3.8 µM
